The test system of assay [1] is Phosphorylated Ribosomal Protein S6 (RPS6) in THP-1 cells. The experiment in a line: THP-1 RPS6 ELISA Assay. Particulars: MCP-1 stimulated, phospho-RPS6 ELISA, read-out: THP p-RPS6 ELISA IC50. Format: cell-based, Human. The gist of the method: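 Phospho-RPS6 in lysates measured by ELISA at 450 nm, corrected at 540 nm, after MCP-1 challenge (10 nM, 15 min) of THP-1 cells that were starved overnight and exposed to test compound for 2 h at 37° C, 2×10^5 cells/well. Curve fit of percent inhibition gives IC50.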
In general terms: In an ELISA, binding on a coated surface is turned into a signal by an enzyme label.

In assay [2] the target is PI3Kγ (p110γ) Recombinant Human Protein (Homo sapiens (Human), UniProt P48736). The experiment in a line: PI3K-γ Scintillation Proximity Assay. The class given is biochemical. Particulars: read-out: PI3K-gamma SPA IC50. The gist of the method: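 Radiometric SPA: reaction at room temperature for 120 min using 2 μM ATP with [γ-33P]ATP tracer, 20 μM PIP2 substrate and 13 nM human PI3Kγ (MOPS pH 6.7, MgCl2, DTT, CHAPS; 2% DMSO). EDTA quench with WGA beads, scintillation count, and IC50 fit of percent-of-control activity.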
Chain of PI3Kγ (p110γ) Recombinant Human Protein (P48736 whole entry): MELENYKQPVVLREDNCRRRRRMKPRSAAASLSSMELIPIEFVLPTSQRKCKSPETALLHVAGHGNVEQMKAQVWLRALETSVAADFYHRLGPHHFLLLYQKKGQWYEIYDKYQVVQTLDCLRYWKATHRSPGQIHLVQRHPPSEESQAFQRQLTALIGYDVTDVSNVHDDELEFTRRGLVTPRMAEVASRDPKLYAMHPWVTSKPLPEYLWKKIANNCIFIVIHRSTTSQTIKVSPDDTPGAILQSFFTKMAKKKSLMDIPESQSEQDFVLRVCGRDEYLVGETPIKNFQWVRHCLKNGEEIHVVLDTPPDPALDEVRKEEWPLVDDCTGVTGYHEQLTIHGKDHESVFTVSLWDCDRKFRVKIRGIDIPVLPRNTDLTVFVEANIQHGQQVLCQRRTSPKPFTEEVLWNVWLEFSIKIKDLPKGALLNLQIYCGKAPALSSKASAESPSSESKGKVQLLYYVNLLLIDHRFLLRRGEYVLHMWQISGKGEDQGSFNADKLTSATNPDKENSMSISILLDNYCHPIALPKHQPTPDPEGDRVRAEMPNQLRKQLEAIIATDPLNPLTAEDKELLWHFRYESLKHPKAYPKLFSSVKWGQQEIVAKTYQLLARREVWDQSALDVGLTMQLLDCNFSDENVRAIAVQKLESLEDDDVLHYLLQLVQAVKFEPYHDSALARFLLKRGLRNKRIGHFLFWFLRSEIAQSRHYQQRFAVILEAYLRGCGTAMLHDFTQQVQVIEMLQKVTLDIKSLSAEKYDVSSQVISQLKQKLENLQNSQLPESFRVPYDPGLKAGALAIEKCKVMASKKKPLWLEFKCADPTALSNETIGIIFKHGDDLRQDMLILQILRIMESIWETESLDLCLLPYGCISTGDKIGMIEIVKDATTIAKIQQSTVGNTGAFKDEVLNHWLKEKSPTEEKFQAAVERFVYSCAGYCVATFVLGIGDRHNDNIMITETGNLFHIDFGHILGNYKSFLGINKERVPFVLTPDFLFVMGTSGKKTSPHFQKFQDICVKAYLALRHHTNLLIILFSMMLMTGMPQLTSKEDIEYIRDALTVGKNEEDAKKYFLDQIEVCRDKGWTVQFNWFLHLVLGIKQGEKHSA
For orientation: SPA uses beads or plates that emit light when radiolabelled molecules are held near them.

The target in assay [3] is PI3Kδ (p110δ/p85α) Recombinant Human Protein (Homo sapiens (Human), UniProt O00329). Nature of the assay: PI3Kδ Scintillation Proximity Assay. Format: biochemical. Particulars: read-out: PI3K-delta SPA IC50. The essentials:
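Radiometric read-out: 33P-labelled PIP3 product captured on WGA SPA beads and counted, with IC50 fitted from percent activity relative to DMSO control. Enzyme (3.4 nM) was incubated 120 min at room temperature with 20 μM PIP2 and 2 μM ATP at pH 6.7, 2% DMSO.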

Data on 19 compounds can be found in patent publication US11352340B2, “Pyridine and pyridimine compounds as PI3K-gamma inhibitors” (Incyte Corporation, priority 2016, dated 2022).

Structures can show the parent of a compound that is named as a salt. Where two headings read alike, the source gives them in different places.

Chain of PI3Kδ (p110δ/p85α) Recombinant Human Protein (O00329 whole entry): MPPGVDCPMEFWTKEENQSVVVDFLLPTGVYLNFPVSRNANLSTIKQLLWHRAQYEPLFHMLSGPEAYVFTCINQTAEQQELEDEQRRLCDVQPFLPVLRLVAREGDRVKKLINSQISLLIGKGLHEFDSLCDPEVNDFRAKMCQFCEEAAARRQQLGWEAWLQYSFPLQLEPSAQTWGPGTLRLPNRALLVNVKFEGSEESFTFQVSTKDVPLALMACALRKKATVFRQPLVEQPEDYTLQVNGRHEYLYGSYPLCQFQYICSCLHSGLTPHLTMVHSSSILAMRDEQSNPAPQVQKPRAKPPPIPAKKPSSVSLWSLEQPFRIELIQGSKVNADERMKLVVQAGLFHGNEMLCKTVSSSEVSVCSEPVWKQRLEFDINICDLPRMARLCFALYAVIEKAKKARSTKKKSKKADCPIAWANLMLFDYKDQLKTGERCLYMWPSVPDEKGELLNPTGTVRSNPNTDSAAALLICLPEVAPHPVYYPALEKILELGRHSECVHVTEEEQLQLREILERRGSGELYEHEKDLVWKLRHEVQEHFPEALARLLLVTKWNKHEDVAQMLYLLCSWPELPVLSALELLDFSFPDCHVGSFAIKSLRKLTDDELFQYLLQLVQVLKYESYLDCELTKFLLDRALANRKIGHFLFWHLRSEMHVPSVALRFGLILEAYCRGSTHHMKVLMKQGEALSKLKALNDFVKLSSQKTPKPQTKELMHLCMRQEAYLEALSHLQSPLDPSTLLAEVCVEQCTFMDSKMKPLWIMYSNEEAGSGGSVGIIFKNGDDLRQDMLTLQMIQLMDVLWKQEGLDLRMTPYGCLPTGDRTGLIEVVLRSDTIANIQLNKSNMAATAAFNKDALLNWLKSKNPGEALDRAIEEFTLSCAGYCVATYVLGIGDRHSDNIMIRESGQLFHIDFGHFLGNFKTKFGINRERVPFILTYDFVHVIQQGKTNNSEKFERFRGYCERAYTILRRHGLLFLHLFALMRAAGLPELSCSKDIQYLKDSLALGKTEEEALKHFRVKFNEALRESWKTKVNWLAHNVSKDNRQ
Chain of PI3Kδ (p110δ/p85α) Recombinant Human Protein (P27986 whole entry partner): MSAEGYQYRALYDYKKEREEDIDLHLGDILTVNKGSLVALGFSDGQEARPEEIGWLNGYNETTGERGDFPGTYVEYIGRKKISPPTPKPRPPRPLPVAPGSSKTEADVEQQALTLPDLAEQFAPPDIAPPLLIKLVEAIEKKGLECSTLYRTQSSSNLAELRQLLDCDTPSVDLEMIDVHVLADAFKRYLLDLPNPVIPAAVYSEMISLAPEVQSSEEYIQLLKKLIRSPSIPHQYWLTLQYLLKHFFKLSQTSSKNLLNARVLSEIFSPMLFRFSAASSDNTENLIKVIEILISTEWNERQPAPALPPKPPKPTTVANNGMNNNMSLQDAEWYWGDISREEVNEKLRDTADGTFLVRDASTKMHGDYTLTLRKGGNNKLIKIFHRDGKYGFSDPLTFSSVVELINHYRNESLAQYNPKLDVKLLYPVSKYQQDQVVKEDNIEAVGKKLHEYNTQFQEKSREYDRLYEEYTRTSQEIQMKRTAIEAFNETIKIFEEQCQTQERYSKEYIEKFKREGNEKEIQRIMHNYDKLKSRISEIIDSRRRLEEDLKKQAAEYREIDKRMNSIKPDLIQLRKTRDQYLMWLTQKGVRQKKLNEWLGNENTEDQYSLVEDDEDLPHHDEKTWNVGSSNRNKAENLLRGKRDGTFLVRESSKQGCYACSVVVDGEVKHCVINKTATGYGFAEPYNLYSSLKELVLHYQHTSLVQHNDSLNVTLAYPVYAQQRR

Take `COC[C@H](NC(=O)c1nc(-c2cc(-c3cncc(N4CCOCC4)c3)ccn2)[nH]c1C)c1ccccc1` [Example 275, N-[(1R)-2-Methoxy-1-phenylethyl]-5-methyl-2-(5-morpholin-4-yl-3,4′-bipyridin-2′-yl) 1H-imidazole-4-carboxamide trifluoroacetate salt]: the IC50 in assay [1] was no more than 0.3 µM; in assay [2], no more than 0.05 µM; in assay [3], no more than 0.05 µM.

Take `Cc1cnc(-c2cc(-c3cncc(N4CCOCC4)c3)ccn2)[nH]1` [Example 97, 2′-(5-Methyl-1H-imidazol-2-yl)-5-morpholin-4-yl-3,4′-bipyridine]: the IC50 was 0.3 to 1 µM in assay [1] (Homo sapiens), no more than 0.05 µM in assay [2] and no more than 0.5 µM in assay [3].

Consider `CC(=O)Nc1cncc(-c2ccnc(-c3ncc(-c4ccccc4)[nH]3)c2)c1` [Example 17, N-(2′-(5-Phenyl-1H-imidazol-2-yl)-3,4′-bipyridin-5-yl)acetamide trifluoroacetate salt], for which the IC50 was 0.3 to 1 µM in assay [1] (Homo sapiens), no more than 0.05 µM in assay [2] and no more than 0.05 µM in assay [3].

In the case of `CCCCNc1nnc(-c2cc(-c3cncc(OC)c3)ccn2)[nH]1` [Example 66, N-Butyl-5-(5-methoxy-3,4′-bipyridin-2′-yl)-4H-1,2,4-triazol-3-amine Trifluoroacetate Salt], the IC50 in assay [1] (Homo sapiens) was greater than 5 µM; in assay [2], no more than 0.5 µM; in assay [3] it was greater than 0.5 µM.

On to `Cc1[nH]c(-c2cc(-c3cncc(N4CCOCC4)c3)ccn2)nc1C(=O)N[C@H](C)c1ccccc1` [Example 274, 5-Methyl-2-(5-morpholin-4-yl-3,4′-bipyridin-2′-yl)-N-[(1R)-1-phenylethyl]-1H-imidazole-4-carboxamide trifluoroacetate salt], for which the IC50 in assay [1] (Homo sapiens) is 1 to 5 µM; in assay [2], no more than 0.05 µM; in assay [3], no more than 0.05 µM.

On to `Cc1[nH]c(-c2cc(-c3cncc(N4CCOCC4)c3)ccn2)nc1C(=O)NC1CCCCC1` [Example 265, N-Cyclohexyl-5-methyl-2-(5-morpholin-4-yl-3,4′-bipyridin-2′-yl)-1H-imidazole-4-carboxamide], for which the figures for the IC50 in assay [1] (Homo sapiens), in assay [2] and in assay [3] were 0.3 to 1 µM, no more than 0.05 µM and no more than 0.05 µM, respectively.

With `Cc1[nH]c(-c2cc(-c3cncc(N4CCOCC4)c3)ccn2)nc1C(=O)N[C@@H](C)c1ccccc1` [Example 273, 5-Methyl-2-(5-morpholin-4-yl-3,4′-bipyridin-2′-yl)-N-[(1S)-1-phenylethyl]-1H-imidazole-4-carboxamide trifluoroacetate salt], the figures for the IC50 in assay [1] (Homo sapiens), in assay [2] and in assay [3] were no more than 0.3 µM, no more than 0.05 µM and no more than 0.05 µM, respectively.

`CS(=O)(=O)c1cncc(-c2ccnc(-c3ncc(C4CCCCC4)[nH]3)c2)c1` [Example 106, 2′-(5-Cyclohexyl-1H-imidazol-2-yl)-5-(methylsulfonyl)-3,4′-bipyridine Trifluoroacetate Salt]: the IC50 in assay [1] (Homo sapiens) was no more than 0.3 µM; in assay [2] it was no more than 0.05 µM; in assay [3], no more than 0.05 µM.

In the case of `CCc1cnc(-c2cc(-c3cncc(OC)c3)ccn2)[nH]1` [Example 85, 2′-(5-Ethyl-1H-imidazol-2-yl)-5-methoxy-3,4′-bipyridine trifluoroacetate salt], the values for the IC50 in assay [1] (Homo sapiens), in assay [2] and in assay [3] were greater than 5 µM, no more than 0.5 µM and greater than 0.5 µM, respectively.

Turning to `Cc1[nH]c(-c2cc(-c3cncc(N4CCOCC4)c3)ccn2)nc1C(=O)NC1CCCC1` [Example 258, N-Cyclopentyl-5-methyl-2-(5-morpholin-4-yl-3,4′-bipyridin-2′-yl)-1H-imidazole-4-carboxamide], the figures for the IC50 in assay [1] (Homo sapiens), in assay [2] and in assay [3] were no more than 0.3 µM, no more than 0.05 µM and no more than 0.05 µM, respectively.

With `CNc1nnc(-c2cc(-c3cncc(OC)c3)ccn2)[nH]1` [Example 68, 5-(5-Methoxy-3,4′-bipyridin-2′-yl)-N-methyl-4H-1,2,4-triazol-3-amine trifluoroacetate salt], the values for the IC50 in assay [1] (Homo sapiens), in assay [2] and in assay [3] were greater than 5 µM, no more than 0.5 µM and greater than 0.5 µM, respectively.

On to `CS(=O)(=O)N1CCC(c2c[nH]c(-c3cc(-c4cnn(Cc5ccc(Cl)cc5)c4)ccn3)n2)C1` (single isomer, unassigned) [Example 300, 4-[1-(4-Chlorobenzyl)-1H-pyrazol-4-yl]-2-{4-[1-(methylsulfonyl)pyrrolidin-3-yl]-1H-imidazol-2-yl}pyridine Trifluoroacetate Salt], for which the IC50 in assay [1] (Homo sapiens) was 0.3 to 1 µM; in assay [2], no more than 0.05 µM; in assay [3], no more than 0.5 µM.

As for `N#CCn1cc(-c2ccnc(-c3ncc(-c4ccccc4)[nH]3)c2)cn1` [Example 56, 2-(4-(2-(5-Phenyl-1H-imidazol-2-yl)pyridin-4-yl)-1H-pyrazol-1-yl)acetonitrile trifluoroacetate salt], the IC50 in assay [1] (Homo sapiens) is no more than 0.3 µM; in assay [2] it was no more than 0.1 µM; in assay [3], no more than 0.1 µM.

`Cc1nc(-c2cc(-c3cncc(C(=O)N4CCC(c5cnccn5)C4)c3)ccn2)[nH]c1C` (stereo not drawn) [Example 197, 2′-(4,5-Dimethyl-1H-imidazol-2-yl)-5-[(3-pyrazin-2-ylpyrrolidin-1-yl)carbonyl]-3,4′-bipyridine trifluoroacetate salt]: the IC50 is 0.3 to 1 µM in assay [1] (Homo sapiens), no more than 0.1 µM in assay [2] and no more than 0.05 µM in assay [3].

Regarding `Cc1[nH]c(-c2cc(-c3cncc(S(C)(=O)=O)c3)ccn2)nc1C(N)=O` [Example 249, 5-Methyl-2-[5-(methylsulfonyl)-3,4′-bipyridin-2′-yl]-1H-imidazole-4-carboxamide trifluoroacetate salt], the values for the IC50 in assay [1] (Homo sapiens), in assay [2] and in assay [3] were 1 to 5 µM, no more than 0.05 µM and no more than 0.05 µM, respectively.

For the compound `Cc1nc(-c2cc(-c3cncc(C(=O)N4CCC(C(F)(F)F)C4)c3)ccn2)[nH]c1C` (racemic) [Example 178, 2′-(4,5-Dimethyl-1H-imidazol-2-yl)-5-{[3-(trifluoromethyl)pyrrolidin-1-yl]carbonyl}-3,4′-bipyridine trifluoroacetate salt], the IC50 in assay [1] (Homo sapiens) was no more than 0.3 µM; in assay [2], no more than 0.05 µM; in assay [3], no more than 0.05 µM.

As to `c1ccc(-c2cnc(-c3cc(-c4cncc(NCC5CCOCC5)c4)ccn3)[nH]2)cc1` [Example 141, 2′-(5-Phenyl-1H-imidazol-2-yl)-N-(tetrahydro-2H-pyran-4-ylmethyl)-3,4′-bipyridin-5-amine Trifluoroacetate Salt], the IC50 was greater than 5 µM in assay [1] (Homo sapiens), no more than 0.05 µM in assay [2] and no more than 0.05 µM in assay [3].

For `Cc1nc(-c2cc(-c3cncc(N4CCOCC4)c3)ccn2)[nH]c1C1CC1` [Example 104, 4-(2′-(5-Cyclopropyl-4-methyl-1H-imidazol-2-yl)-3,4′-bipyridin-5-yl)morpholine trifluoroacetate salt], the IC50 in assay [1] (Homo sapiens) was no more than 0.3 µM; in assay [2] it was no more than 0.05 µM; in assay [3], no more than 0.05 µM.

`Cc1nc(-c2cc(-c3cncc(C(=O)NCC4CCCC4)c3)ccn2)[nH]c1C` [Example 207, N-(Cyclopentylmethyl)-2′-(4,5-dimethyl-1H-imidazol-2-yl)-3,4′-bipyridine-5-carboxamide trifluoroacetate salt]: the IC50 in assay [1] (Homo sapiens) is 1 to 5 µM; in assay [2], no more than 0.05 µM; in assay [3] it was no more than 0.5 µM.
